Measured values as given in publication PMC8457910 (Bioorganic Chemistry, 2021).
Several values for one entry are separate records, joined by “and”; a condition that tells them apart may be missing. Equal entries are not always repeated.

Molecular target: NusA-5HB (Severe acute respiratory syndrome coronavirus 2, UniProt P0DTC2)
Test: Competitive FP assays of small molecules
Type: binding, SARS-CoV-2
Conditions: IC50, 8 nM NusA-5HB, 5 nM HR2P-FL, 4% DMSO

`O=C(/C=C/c1ccc(O)c(O)c1/C=C/c1ccc(O)c(O)c1)O[C@H](Cc1ccc(O)c(O)c1)C(=O)O` [Sal-A, Salvianolic acid A] was tested, and the IC50 was 3.9 µM and ~3.9 µM.

For `O=C(O)/C=C/c1ccc(O)c(O)c1` [caffeic acid, Caffeic acid], the IC50 was 638 µM and ~638 µM.
